Source: US12239643B2, “Therapeutic agent for inflammatory diseases, autoimmune diseases, fibrotic diseases, and cancer diseases” (MEIJI SEIKA PHARMA CO., LTD., priority 2018, dated 2025)
Where two headings read alike, the source gives them in different places.

Tests used:
PDE4 = test: Evaluation of PDE4 inhibitory activity, scintillation proximity assay; assay type: biochemical; settings: for PDE4 inhibitory activity: summary in words of Tables 57 to 69
How it was run: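 IC50 was derived from inhibition curves, referenced to an enzyme-free blank and a DMSO-only control. Compound, PDE4 preparation and tritiated cAMP reacted 120 min at RT in Tris-HCl buffer (pH 7.4) with MgCl2, EGTA and BSA; YSi-SPA beads with ZnSO4 bound product before scintillation counting.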

TGF-β = TGF-β inhibitory activity using THP1 cells differentiated into macrophages; assay type: cell-based; settings: Homo sapiens, THP-1; THP1 cells differentiated into macrophages, lipopolysaccharide 1 μg/mL, about 7 hours; read-out: TFG-β Inhibitory Activity (Test Example 6)
Method: The TGF-β inhibitory activity was measured using THP1 cells as follows. First, THP1 cells were seeded on a 24-well culture plate at […], and culture was carried out overnight at 37° C. and 5% CO2 in RPMI-1640 medium (containing 10% fetal bovine serum, penicillin, and streptomycin) supplemented with 100 nM phorbol myristate acetate. After that, the cells were differentiated into macrophages by changing to RPMI-1640 medium without phorbol myristate acetate, followed by further culture at 37° C. under 5% CO2 overnight. Next, the THP1 culture plate was washed once with PBS(−) 1 mL/well, and then the test compound and lipopolysaccharide (final concentration 1 μg/mL) were added, followed by culture at 37° C. under 5% CO2 for about 7 hours. After culturing, the entire amount of the medium was collected, and the amount of TGF-β in the centrifuged supernatant was quantified by the sandwich ELISA method. The non-addition of lipopolysaccharide was used as a blank, and the control was obtained by adding only dimethyl sulfoxide instead of the test compound, and the inhibition rate of the test compound against the control was calculated by the following formula. Inhibition Rate (%)={1−(Value at Addition of Each Test Compound−Blank Value)/(Control Value−Blank Value)}×100
In addition, the TGF-β inhibitory activity (concentration for the inhibition rate of 50%) of the test compound was calculated from the inhibition curves based on the inhibition rate for various concentrations of the test compound.
The measurement results obtained by measuring the TFG-β inhibitory activity (50% inhibitory concentration) of the test compounds by the above method were evaluated in accordance with the following evaluated basis; A: less than 1 μM, and B: 1 μM or more.

[1] = test system: oxazolone-induced auricle edema, BALB/c mice; test: Hapten repeated application mouse chronic dermatitis model (oral, topical); assay type: in vivo; settings: oral, 0.3 to 10 mg/kg twice a day for 10 days
Method: Evaluation was carried out using female BALB/c mice (7 to 8 weeks of age). First, the hair of the abdomen of the mice was treated with a hair clipper, and then 150 μL of a 3% oxazolone acetone/ethanol solution was applied to the abdomen as a hapten. One week later, 20 μL/ear of 1% oxazolone acetone/ethanol solution was applied to the outer surface of the auricle of both ears of the mice 3 times/week to induce inflammation. A 1% oxazolone-acetone/ethanol solution was applied every other day for 10 days from 1 week after the start of inflammation induction. In addition, for 10 days from 1 week after the start of inflammation induction, the test compound suspended in 0.5% w/v methylcellulose (0.5% MC) was orally administered at 0.3 to 10 mg/kg twice a day (10 μL/g), or 20 μL of a 0.3 to 3% test compound dissolved in an acetone/ethanol solution was applied once or twice a day (topical administration). A 1% oxazolone was not applied to the blank. The control was one in which 1% oxazolone was applied and only 0.5% MC was orally administered without using the test compound, or only an acetone/ethanol solution was applied.
After administration for 10 days, auricle thickness was measured using a dial thickness gauge, and the changes in auricular thickness before the treatment (immediately before the start of administration of the test compound) and after the treatment (after the administration of the test compound for 10 days) were used to calculate the edema suppression rate by the following formula. Edema Suppression Rate (%)={1−(Auricle Thickness After Treatment by Test Compound−Auricle Thickness Before Treatment by Test Compound)/(Auricle Thickness After Treatment of Control−Auricle Thickness Before Treatment of Control)}×100
The measurement results obtained by measuring the edema suppression rate at the time of oral administration of each test compound by the above method were evaluated in accordance with the following evaluated basis; A: 70% or more, B: 40% or more and less than 70%, and C: less than 40%. In addition, the measurement results obtained by measuring the edema suppression rate at the time of topical administration of each test compound were evaluated in accordance with the following evaluated basis; A: 100% or more, B: 70% or more and less than 100%, and C: less than 70%.

[2] = Hepatic metabolic stability (rat liver microsome method); assay type: in vitro ADME; settings: rat liver microsomes 0.5 mg/mL, test substance 1 μM, NADPH 1 mM, 37° C., 30 minutes
How it was run: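 Scored by % parent left after 30 min (30 min/0 min ×100, LC-MS), banded A ≥75%, B 60–<75%, C 45–<60%, D <45%. Incubation: 1 μM compound, 0.5 mg/mL rat microsomes, pH 7.4 phosphate buffer, 37° C, 5 min preincubation, NADPH 1 mM started, acetonitrile quench.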

[3] = finer grading of compounds rated A in Evaluation 1, read-out: PDE4 Inhibitory Activity (Evaluation 2)
[4] = scintillation proximity assay, class symbols of Evaluation 1, read-out: PDE4 Inhibitory Activity (concentration for the inhibition rate of 50%, IC50), Evaluation 1
[5] = scintillation proximity assay, read-out: PDE4 Inhibitory Activity (Evaluation 1; concentration for the inhibition rate of 50%)

SMILES | IC50 (PDE4; [3]) [nM] | IC50 (PDE4; [4]) [nM] | PDE4 inhibitory activity (PDE4) | IC50 (TGF-β) [nM] | IC50 (PDE4; [5]) [nM] | Mouse Chronic Dermatitis Model (Test Example 8), Oral: edema suppression rate [1] | Residual ratio (% remaining for 30-minute reaction) [2]
FC(F)(F)Oc1ccc(-c2nccs2)c2oc(N3CC4CCCC(C3)N4)nc12 [Example 30, 2-(3,9-Diazabicyclo[3.3.1]nonan-3-yl)-7-(thiazol-2-yl)-4-(trifluoromethoxy)benzo[d]oxazole] | ≤ 1 | < 100 | particularly excellent | < 1000 |  |  | 
CC(O)c1cc(-c2nccs2)c2oc(N3CC4CC(C3)N4)nc2c1OC(F)(F)F (stereo not shown) [Example 203, 1-(2-(3,6-Diazabicyclo[3.1.1]heptan-3-yl)-7-(thiazol-2-yl)-4-(trifluoromethoxy)benzo[d]oxazol-5-yl)ethan-1-ol] | 1 to 11 |  | particularly excellent | < 1000 | < 100 | B (B: 40% or more and less than 70%) | 
COC(C)(C)c1cc(-c2nccs2)c2oc(N3CC4CC(C3)N4)nc2c1OC(F)(F)F [Example 199, 2-(3,6-Diazabicyclo[3.1.1]heptan-3-yl)-5-(2-methoxypropan-2-yl)-7-(thiazol-2-yl)-4-(trifluoromethoxy)benzo[d]oxazole] | 1 to 11 |  | particularly excellent | < 1000 | < 100 | B (B: 40% or more and less than 70%) | 
FC(F)(F)Oc1c(Cl)cc(-c2nccs2)c2oc(N3CC4CC(C3)N4)nc12 [Example 3, 2-(3,6-Diazabicyclo[3.1.1]heptan-3-yl)-5-chloro-7-(thiazol-2-yl)-4-(trifluoromethoxy)benzo[d]oxazole] | ≤ 1 | < 100 | particularly excellent | < 1000 |  |  | B (B: 60% or more and less than 75%)
CC(=O)c1cc(-c2nccs2)c2oc(N3CC4CC(C3)N4)nc2c1OC(F)(F)F [Example 212, 1-(2-(3,6-Diazabicyclo[3.1.1]heptan-3-yl)-7-(thiazol-2-yl)-4-(trifluoromethoxy)benzo[d]oxazol-5-yl)ethan-1-one] | ≤ 1 |  | particularly excellent |  | < 100 | B (B: 40% or more and less than 70%) | 
CC(O)(c1ccc(-c2nccs2)c2oc(N3CC4CC(C3)N4)nc12)C(F)(F)F (stereo not shown) [Example 234, 2-(2-(3,6-Diazabicyclo[3.1.1]heptan-3-yl)-7-(thiazol-2-yl)benzo[d]oxazol-4-yl)-1,1,1-trifluoropropan-2-ol] | ≤ 1 |  | particularly excellent |  | < 100 | A (A: 70% or more) | 
CC(C)(O)c1cc(-c2nccs2)c2oc(N3CC4CCC(C3)N4)nc2c1C(F)(F)F [Example 177, 2-(2-(3,8-Diazabicyclo[3.2.1]octan-3-yl)-7-(thiazol-2-yl)-4-(trifluoromethyl)benzo[d]oxazol-5-yl)propan-2-ol] | 1 to 11 | < 100 | particularly excellent | < 1000 |  |  | 
CC(O)(c1ccc(-c2nccs2)c2oc(N3CC4CC(C3)N4)nc12)C(F)F (stereo not shown) [Example 296, 2-(2-(3,6-Diazabicyclo[3.1.1]heptan-3-yl)-7-(thiazol-2-yl)benzo[d]oxazol-4-yl)-1,1-difluoropropan-2-ol] | 1 to 11 |  | particularly excellent |  | < 100 | A (A: 70% or more) | 
COC(C)(c1ccc(-c2nccs2)c2oc(N3CC4CC(C3)N4)nc12)C(F)(F)F (stereo not shown) [Example 235, 2-(3,6-Diazabicyclo[3.1.1]heptan-3-yl)-7-(thiazol-2-yl)-4-(1,1,1-trifluoro-2-methoxypropan-2-yl)benzo[d]oxazole] | ≤ 1 |  | particularly excellent |  | < 100 | A (A: 70% or more) | 
FC(F)(F)Oc1c(Cl)cc(-c2nccs2)c2oc(N3CC4COCC(C3)N4)nc12 [Example 4, 7-(5-Chloro-7-(thiazol-2-yl)-4-(trifluoromethoxy)benzo[d]oxazol-2-yl)-3-oxa-7,9-diazabicyclo[3.3.1]nonane] | 1 to 11 | < 100 | particularly excellent | < 1000 |  |  | 
FC(F)(F)c1ccc(-c2nccs2)c2oc(N3CC4CC(C3)N4)nc12 [Example 32, 2-(3,6-Diazabicyclo[3.1.1]heptan-3-yl)-7-(thiazol-2-yl)-4-(trifluoromethyl)benzo[d]oxazole] | 1 to 11 | < 100 | particularly excellent | < 1000 |  |  | 
OC(c1ccc(-c2nccs2)c2oc(N3CC4CC(C3)N4)nc12)C(F)(F)F (stereo not shown) [Example 120, 1-(2-(3,6-Diazabicyclo[3.1.1]heptan-3-yl)-7-(thiazol-2-yl)benzo[d]oxazol-4-yl)-2,2,2-trifluoroethan-1-ol] | 1 to 11 | < 100 | particularly excellent | < 1000 |  | B (B: 40% or more and less than 70%) | 
COC(c1cc(-c2nccs2)c2oc(N3CC4CC(C3)N4)nc2c1OC(F)(F)F)C(F)F (stereo not shown) [Example 208, 2-(3,6-Diazabicyclo[3.1.1]heptan-3-yl)-5-(2,2-difluoro-1-methoxyethyl)-7-(thiazol-2-yl)-4-(trifluoromethoxy)benzo[d]oxazole] | 1 to 11 |  | particularly excellent |  | < 100 | B (B: 40% or more and less than 70%) | 
COc1ccc(-c2nccs2)c2oc(N3CC4CCC(C3)N4)nc12 [Example 75, 2-(3,8-Diazabicyclo[3.2.1]octan-3-yl)-4-methoxy-7-(thiazol-2-yl)benzo[d]oxazole] | 1 to 11 | < 100 | particularly excellent | < 1000 |  |  | 
Cc1ccc(-c2nccs2)c2oc(N3CC4CCC(C3)N4)nc12 [Example 25, 2-(3,8-Diazabicyclo[3.2.1]octan-3-yl)-4-methyl-7-(thiazol-2-yl)benzo[d]oxazole] | ≤ 1 | < 100 | particularly excellent | < 1000 |  |  | 
